Values quoted from earlier work, collected in patent US20250134883A1, “NOVEL COMPOSITIONS” (TULEX PHARMACEUTICALS INC., priority 2022, published 2025).

Settings: high dose naltrexone (0.5, 1.0 and 2.0 mg/kg)

## O=C1CC[C@@]2(O)[C@H]3Cc4ccc(O)c5c4[C@@]2(CCN3CC2CC2)[C@H]1O5 [naltrexone, Naltrexone]
  effect on autistic behavior and gaze aversion: reverse autistic behavior and gaze aversion
